# Assay results: patent publication US7034035B2, “Fungicidal mono-, bi-, and tri-cycloheteroalkyl amides and their compositions, methods of use and preparation” (priority 1999, dated 2006)
# Read-outs that look alike come from different tables or passages of the source.
# Experiments:
# [1] = tested on: Puccinia recondita—PUCCRT; assay: Brown Rust of Wheat, in vivo whole plant, 24 Hour Protectant; settings: Puccinia, inoculated after 24 hours, read-out: PUCCRT in vivo 1 Day Protectant
# [2] = tested on: Rhizoctonia solani (RHIZSO); assay: microbe, parasite or virus in culture; format: cell-based
# Ustilago maydis (USTIMA) = assay: microbe, parasite or virus in culture; format: cell-based
# Septoria tritici—SEPTTR = assay: Leaf Blotch of Wheat, in vivo whole plant, 24 Hour Protectant; settings: Zymoseptoria tritici; wheat (cultivar Yuma), sprayed at 100 ppm, inoculated after 24 hours; control of fungal infection vs untreated plants; read-out: SEPTTR in vivo 1 Day Protectant
# [3] = tested on: Leptosphaeria nodorum—LEPTNO; assay: Glume Blotch of Wheat, in vivo whole plant, 24 Hour Protectant; settings: Leptosphaeria, 24 h, wheat (cultivar Yuma), sprayed at 100 ppm, inoculated after 24 hours; control of fungal infection vs untreated plants; read-out: LEPTNO in vivo 1 Day Protectant
# [4] = wheat (cultivar Yuma), sprayed at 100 ppm, control of fungal infection vs untreated plants
SMILES,"pest or weed control at 100 ppm ([1]; wheat plants sprayed at 100 ppm, control vs untreated plants)","pest or weed control at 100 ppm [1, 4]",RHIZSO in vitro Growth Inhibition [2],USTIMA in vitro Growth Inhibition (Ustilago maydis (USTIMA)),pest or weed control at 100 ppm (Septoria tritici—SEPTTR),pest or weed control at 100 ppm [3]
COc1ccnc(C(=O)Nc2cccc(Oc3ccc(C(F)(F)F)cc3)n2)c1O [Compound 469],75 to 100%,–,–,–,–,–
COc1ccnc(C(=O)NC(COC(=O)C(Cc2ccccc2)C(C)O[Si](C)(C)C(C)(C)C)C(=O)OC(C)C)c1O (stereo not drawn) [Compound 357],–,75 to 100%,–,–,–,–
O=C(Nc1ccc(Cl)cc1)c1ncccc1O [Compound 213],–,75 to 100%,− (key: +: at least 80% growth inhibition; −: less than 80% growth inhibition),− (key: +: at least 80% growth inhibition; −: less than 80% growth inhibition),–,–
COc1ccnc(C(=O)NC(COC(=O)C(C)Cc2ccccc2)C(=O)OC(C)C)c1O (stereo not drawn) [Compound 351],–,75 to 100%,–,–,–,–
COc1ccnc(C(=O)N[C@H]2CO[C@](C)(C(C)CC3=C(C)CCCC3(C)C)OC2)c1O (stereo partly drawn) [Compound 319],–,75 to 100%,− (key: +: at least 80% growth inhibition; −: less than 80% growth inhibition),− (key: +: at least 80% growth inhibition; −: less than 80% growth inhibition),–,–
COc1ccnc(C(=O)N[C@@H](COCc2ccccc2)C(=O)O[C@@H](C)[C@H](OC(=O)C(C)C)[C@@H](Cc2ccccc2)C(=O)OCc2ccccc2)c1O [Compound 342],–,75 to 100%,–,–,–,–
COc1ccnc(C(=O)N[C@H]2CC3CC2[C@@H](COCc2cccc(C(F)(F)F)c2)C3)c1O (stereo partly drawn) [Compound 295],–,–,+ (key: +: at least 80% growth inhibition; −: less than 80% growth inhibition),− (key: +: at least 80% growth inhibition; −: less than 80% growth inhibition),75 to 100%,–
COc1ccnc(C(=O)N[C@H]2CO[C@H](C(C)Cc3ccc(C(C)(C)C)cc3)OC2)c1O (stereo partly drawn) [Compound 316],–,75 to 100%,− (key: +: at least 80% growth inhibition; −: less than 80% growth inhibition),+ (key: +: at least 80% growth inhibition; −: less than 80% growth inhibition),–,–
CCC1(C)CC(NC(=O)c2nccc(OC)c2O)CC(C)(C)C1 (stereo not drawn) [Compound 251],–,75 to 100%,− (key: +: at least 80% growth inhibition; −: less than 80% growth inhibition),− (key: +: at least 80% growth inhibition; −: less than 80% growth inhibition),75 to 100%,75 to 100%
COc1ccnc(C(=O)N[C@@H]2CC3CC2c2ccccc23)c1O (stereo partly drawn) [Compound 290],–,75 to 100%,+ (key: +: at least 80% growth inhibition; −: less than 80% growth inhibition),− (key: +: at least 80% growth inhibition; −: less than 80% growth inhibition),–,75 to 100%
COc1ccnc(C(=O)NC(COC(=O)CCc2ccccc2)C(=O)OC(C)COC(=O)C(C)C)c1O (stereo not drawn) [Compound 359],–,75 to 100%,–,–,75 to 100%,–
COc1ccnc(C(=O)N[C@H]2CC[C@H](Oc3ccc(C(F)(F)F)cc3)CC2)c1O [Compound 270],–,–,+ (key: +: at least 80% growth inhibition; −: less than 80% growth inhibition),+ (key: +: at least 80% growth inhibition; −: less than 80% growth inhibition),–,75 to 100%
COc1ccnc(C(=O)NC(COC(=O)CC(C)OC(=O)CCc2ccccc2)C(=O)OC(C)C)c1O (stereo not drawn) [Compound 353],–,75 to 100%,–,–,–,–
COc1ccnc(C(=O)N[C@H]2CC3CC2[C@H](COCc2cccc(C(F)(F)F)c2)C3)c1O (stereo partly drawn) [Compound 294],–,–,+ (key: +: at least 80% growth inhibition; −: less than 80% growth inhibition),− (key: +: at least 80% growth inhibition; −: less than 80% growth inhibition),–,75 to 100%
COc1ccnc(C(=O)N[C@@H](Cc2ccc(OCc3ccccc3)cc2)C(=O)O)c1O [Compound 337],–,–,− (key: +: at least 80% growth inhibition; −: less than 80% growth inhibition),− (key: +: at least 80% growth inhibition; −: less than 80% growth inhibition),–,75 to 100%
COc1ccnc(C(=O)N[C@H]2CO[C@@H](C(C)Cc3ccc(C(C)(C)C)cc3)OC2)c1O (stereo partly drawn) [Compound 317],–,75 to 100%,− (key: +: at least 80% growth inhibition; −: less than 80% growth inhibition),− (key: +: at least 80% growth inhibition; −: less than 80% growth inhibition),–,–
COc1ccnc(C(=O)NC2CC(C)(C)CCCC2C)c1O (stereo not drawn) [Compound 277],–,–,− (key: +: at least 80% growth inhibition; −: less than 80% growth inhibition),− (key: +: at least 80% growth inhibition; −: less than 80% growth inhibition),75 to 100%,–
COc1ccnc(C(=O)NC2CCCC(Sc3ccc(C(F)(F)F)cn3)C2)c1O (stereo not drawn) [Compound 274],–,75 to 100%,+ (key: +: at least 80% growth inhibition; −: less than 80% growth inhibition),− (key: +: at least 80% growth inhibition; −: less than 80% growth inhibition),–,75 to 100%
COc1ccnc(C(=O)NC(C)c2ccc(Cl)cc2)c1O (stereo not drawn) [Compound 246],–,–,− (key: +: at least 80% growth inhibition; −: less than 80% growth inhibition),− (key: +: at least 80% growth inhibition; −: less than 80% growth inhibition),–,75 to 100%
COc1ccnc(C(=O)NC2CC(C)(C)/C=C\CC(C)(C)C2)c1O (stereo not drawn) [Compound 283],–,–,− (key: +: at least 80% growth inhibition; −: less than 80% growth inhibition),− (key: +: at least 80% growth inhibition; −: less than 80% growth inhibition),75 to 100%,–
COc1ccnc(C(=O)NC2CC(C)(C)CC(C)(C(=O)CCCc3ccccc3)C2)c1O (stereo not drawn) [Compound 276],–,–,− (key: +: at least 80% growth inhibition; −: less than 80% growth inhibition),− (key: +: at least 80% growth inhibition; −: less than 80% growth inhibition),–,75 to 100%
COc1ccnc(C(=O)NC2CC(C)(C)CC(C)(COCC(Cl)CCl)C2)c1O (stereo not drawn) [Compound 257],–,–,− (key: +: at least 80% growth inhibition; −: less than 80% growth inhibition),+ (key: +: at least 80% growth inhibition; −: less than 80% growth inhibition),–,75 to 100%
COc1ccnc(C(=O)NC2CC(C)(C)C(Oc3cc(C(F)(F)F)cc(C(F)(F)F)n3)C(C)(C)C2)c1O (stereo not drawn) [Compound 272],–,–,− (key: +: at least 80% growth inhibition; −: less than 80% growth inhibition),− (key: +: at least 80% growth inhibition; −: less than 80% growth inhibition),75 to 100%,–
COc1ccnc(C(=O)NC(COC(=O)CC(C)O[Si](C)(C)C(C)(C)C)C(=O)OC(C)C)c1O (stereo not drawn) [Compound 354],–,75 to 100%,–,–,–,–
COc1ccnc(C(=O)N[C@H](C(=O)O[C@@H](C)[C@H](OC(=O)C(C)C)[C@@H](Cc2ccccc2)C(=O)OCc2ccccc2)[C@@H](C)OC(C)=O)c1O [Compound 361],–,75 to 100%,–,–,–,–
COc1ccnc(C(=O)NC2C(=O)c3ccc(-c4ccco4)cc3OC2C)c1O (stereo not drawn) [Compound 323],–,–,+ (key: +: at least 80% growth inhibition; −: less than 80% growth inhibition),− (key: +: at least 80% growth inhibition; −: less than 80% growth inhibition),75 to 100%,75 to 100%
COc1ccnc(C(=O)NC2C3CC4C(C3Cl)C42)c1O (stereo not drawn) [Compound 304],–,–,+ (key: +: at least 80% growth inhibition; −: less than 80% growth inhibition),− (key: +: at least 80% growth inhibition; −: less than 80% growth inhibition),75 to 100%,–
COC(=O)C(COC(=O)C(COC(=O)C(C)C)Cc1ccccc1)NC(=O)c1nccc(OC)c1O (stereo not drawn) [Compound 349],–,75 to 100%,–,–,–,–
COc1ccnc(C(=O)NCC#Cc2ccccc2)c1O [Compound 240],–,–,− (key: +: at least 80% growth inhibition; −: less than 80% growth inhibition),− (key: +: at least 80% growth inhibition; −: less than 80% growth inhibition),75 to 100%,–
